Results on 7 compounds are retold here after patent US6872745B2, “Antipicornaviral compounds and compositions, their pharmaceutical uses, and materials for their synthesis” (Agouron Pharmaceuticals, Inc., priority 2000, dated 2005).

SMILES strings stand for the structures.

The target in data set [1] is T1, rhinovirus 3C protease, serotype 14 (Human rhinovirus 14, UniProt P03303).
T1 construct: Recombinant rhinovirus 3C proteases; made in house
Nature of the data set: Inhibition of rhinovirus 3C protease (FRET assay, enzyme start). The class given is biochemical. Conditions: HRV-14 3C protease, progress curves, read-out: Kobs/I. How it is done:
Stock solutions (50 mM, in DMSO) of various compounds were prepared; dilutions were in the same solvent. Recombinant rhinovirus 3C proteases (see Birch et al., “Purification of recombinant human rhinovirus 14 3C protease expressed in Escherichia coli,” Protein Expr. Pur. (1995), vol. 6(5), 609-618) from serotypes 14, 16, and 2 were prepared by the following standard chromatographic procedures: (1) ion exchange using Q Sepharose Fast Flow from Pharmacia; (2) affinity chromatography using Affi-Gel Blue from Biorad; and (3) sizing using Sephadex G-100 from Pharmacia. Each assay sample contained 2% DMSO, 50 mM tris pH 7.6, 1 mM EDTA, a test compound at the indicated concentration, approximately 1 μM substrate, and 50-100 nM protease. The kobs/I values were obtained from reactions initiated by addition of enzyme rather than substrate. RVP activity was measured in the fluorescence resonance energy transfer assay. The substrate was (N-terminal) DABCYL-(Gly-Arg-Ala-Val-Phe-Gln-Gly-Pro-Val-Gly)-EDANS. In the uncleaved peptide, the EDANS fluorescence was quenched by the proximal DABCYL moiety. When the peptide was cleaved, the quenching was relieved, and activity was measured as an increase in fluorescence signal. The tabulated data in the column designated kobs/[I] were measured from progress curves in enzyme start experiments.

The test system of the next data set is HRV-14. Nature of the data set: Antirhinoviral H1-HeLa cell culture assay (XTT cell protection). Format: cell-based, human rhinovirus. Conditions: Rhinovirus B, HRV14, H1-HeLa, HRV-14, H1-HeLa cells. The method, then: (§1) In this cell protection assay, the ability of compounds to protect cells against HRV infection was measured by the XTT dye reduction method, which is described in Weislow et al., J. Natl. Cancer Inst. (1989), vol. 81, 577-586. H1-HeLa cells were infected with HRV-14 at a multiplicity of infection (m.o.i.) of 0.13 (virus particles/cell) or mock-infected with medium only. Infected or mock-infected cells were resuspended at 8×10^5 cells per ml, and incubated with appropriate concentrations of the compounds to be tested. Two days later, XTT/PMS was added to test plates and the amount of formazan produced was quantified spectrophotometrically at 450/650 nm. The EC50 value was calculated as the concentration of compound that increased the percentage of formazan production in compound-treated, virus-infected cells to 50% of that produced by compound-free, mock-infected cells. The 50% cytotoxic dose (CC50) was calculated as the concentration of compound that decreased the percentage of formazan produced in compound-treated, mock-infected cells to 50% of that produced by compound-free, mock-infected cells. The therapeutic index (TI) was calculated by dividing the CC50 value by the EC50 value.
(§2) All strains of human rhinovirus (HRV) for use in this assay were purchased from American Type Culture Collection (ATCC), except for HRV serotype-14 (produced from the infectious cDNA clone constructed by Dr. Robert Rueckert, Institute for Molecular Virology, University of Wisconsin, Madison, Wis.). HRV stocks were propagated and viral assays were performed in H1-HeLa cells (ATCC). Cells were grown in minimal essential medium with 10% fetal bovine serum, available from Life Technologies (Gaithersburg, Md.).

The test system of the next data set is HRV-1A. Described as above. Format: cell-based, human rhinovirus. Particulars: Rhinovirus A, HRV1A, H1-HeLa cells. How it is done: as §1, §2
The test system of another data set is HRV-10. The description is as above. The class given is cell-based. Conditions: Human rhinovirus sp., HRV10; HRV-10, H1-HeLa cells. The method, then: as §1, §2
Data set [2] can be described thus: Cytotoxicity in mock-infected cells of the antirhinoviral assay (XTT). Particulars: human, H1-HeLa cells. The class given is cell-based. How it is done: as §1, §2
(In general: Tetrazolium assays rely on reduction of a dye to a coloured formazan, in cell work by metabolically active cells.)

A further data set concerns H1-HeLa cells. The description is as above. Format: cell-based. How it is done:
as §1, §2

The next data set relates to HRV-25. Nature of the data set: Antirhinoviral H1-HeLa cell culture assay (XTT cell protection). The class given is cell-based. Particulars: Human rhinovirus sp., HRV25; HRV-25, H1-HeLa cells. The method, then:
as §1, §2

The next data set concerns HRV-39. The description is as above. The class given is cell-based. Conditions: Human rhinovirus sp., HRV39; HRV-39, H1-HeLa cells. How it is done:
as §1, §2

For another data set, the system named is HRV-3. The data set is described as above. The class given is cell-based. Particulars: Human rhinovirus sp., HRV3; HRV-3, H1-HeLa cells. How it is done:
as §1, §2

For another data set, the system named is HRV-9. The description is as above. The class given is cell-based. Particulars: Human rhinovirus sp., HRV9; HRV-9, H1-HeLa cells. The method, then:
as §1, §2

In a further data set the test system is HRV-2. Described as above. Format: cell-based, human rhinovirus. Conditions: Rhinovirus A, HRV2; HRV-2, H1-HeLa cells. How it is done: as §1, §2
Another data set relates to HRV-16. The data set is described as above. Format: cell-based. Conditions: Human rhinovirus sp., HRV16; HRV-16, H1-HeLa cells. The method, then:
as §1, §2

The test system of a further data set is HRV-87. The data set is described as above. Format: cell-based. Conditions: Human rhinovirus sp., HRV87; HRV-87, H1-HeLa cells. The method, then: as §1, §2

T1 sequence (P03303 1538-1719): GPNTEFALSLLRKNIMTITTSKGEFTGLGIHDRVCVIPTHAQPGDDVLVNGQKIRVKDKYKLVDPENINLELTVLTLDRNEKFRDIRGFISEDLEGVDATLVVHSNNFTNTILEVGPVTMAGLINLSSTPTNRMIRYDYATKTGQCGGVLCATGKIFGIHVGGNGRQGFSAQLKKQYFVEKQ

By EC50 is commonly meant the concentration that produces a half-maximal response. Low values mean an effect from little substance, high ones a need for much substance. In general, CC50 refers to the concentration that lowers cell viability or growth by half. A high value points to lower toxicity to the cells. Take `CCOC(=O)/C=C/[C@H](C[C@@H]1CCNC1=O)NC(=O)[C@H](Cc1ccccc1)NC(=O)c1ccc(-c2ccccc2C(F)(F)F)[nH]1` [Compound 28, 5-(2-Oxo-pyrrolidin-3S-yl)-4S-(3-phenyl-2S-{[5-(2-trifluoromethyl-phenyl)-1H-pyrrole-2-carbonyl]-amino}-propionylamino)-pent-2(trans)-enoic acid ethyl ester]: the kinact/KI in [1] stood at 340000 M⁻¹ s⁻¹. The half-maximal effective concentration (EC50) with HRV-14 was 59 nM; in the data set with HRV-1A it was 213 nM; in the data set on HRV-10, 66 nM. Besides, in [2] (table line HRV-14), the cytotoxic concentration (CC50) at 2 days was greater than 1000 nM. Further, the CC50 with H1-HeLa cells (table line HRV-1A) and in the data set with H1-HeLa cells (table line HRV-10) was greater than 1000 nM throughout.
For `C#CC[C@H](NC(=O)c1ccc(-c2ccccc2C(F)(F)F)[nH]1)C(=O)N[C@H](/C=C/C(=O)OCC)C[C@@H]1CCNC1=O` [Compound 29, 5-(2-Oxo-pyrrolidin-3S-yl)-4S-(2S-{[5-(2-trifluoromethyl-phenyl)-1H-pyrrole-2-carbonyl]-amino}-pent-4-ynoylamino)-pent-2(trans)-enoic acid ethyl ester], the kinact/KI in data set [1] worked out at 103000 M⁻¹ s⁻¹. Further, the 50% effective concentration (EC50) turned out to be 150 nM with HRV-14; 54 nM in the data set with HRV-1A; 27 nM with HRV-10; 316 nM in the data set with HRV-25; 180 nM in the data set on HRV-39; 65 nM with HRV-3. In addition, a half-maximal response in the data set with HRV-9 (EC50) required 119 nM. The compound further showed a half-maximal cytotoxic concentration (CC50) at 2 days in [2] (table line HRV-14) greater than 10000 nM. Moreover, the CC50 in the data set with H1-HeLa cells (table line HRV-1A), with H1-HeLa cells (table line HRV-3), in the data set on H1-HeLa cells (table line HRV-9), in the data set on H1-HeLa cells (table line HRV-10), in the data set with H1-HeLa cells (table line HRV-25) and in the data set with H1-HeLa cells (table line HRV-39) was greater than 10000 nM each time.
For the compound `C#CC[C@H](CC(=O)c1ccc(-c2ccccc2C(F)(F)F)[nH]1)C(=O)N[C@H](/C=C/C(=O)OCC)C[C@@H]1CCNC1=O` [Compound 36], the 50% effective concentration (EC50) in the data set on HRV-1A is 145 nM; in the data set on HRV-10 it was 330 nM; in the data set on HRV-25 it was 329 nM; in the data set on HRV-39, 235 nM; with HRV-3, 145 nM; in the data set with HRV-9, 144 nM. The compound also had a half-maximal cytotoxic concentration (CC50) at 2 days in [2] (table line HRV-14) greater than 10000 nM. In addition, the CC50 with H1-HeLa cells (table line HRV-1A), in the data set with H1-HeLa cells (table line HRV-3), in the data set with H1-HeLa cells (table line HRV-9), with H1-HeLa cells (table line HRV-10), in the data set with H1-HeLa cells (table line HRV-25) and in the data set with H1-HeLa cells (table line HRV-39) was greater than 10000 nM throughout.
In the case of `C#CC[C@H](CC(=O)c1ccc(-c2ccccc2Cl)[nH]1)C(=O)N[C@H](/C=C/C(=O)OCC)C[C@@H]1CCNC1=O` [Compound 38, 4S-(2R-{2-[5-(2-Chloro-phenyl)-1H-pyrrol-2-yl]-2-oxo-ethyl}-pent-4-ynoylamino)-5-(2-oxo-pyrrolidin-3S-yl)-pent-2(trans)-enoic acid ethyl ester], the kinact/KI in data set [1] is 33000 M⁻¹ s⁻¹. Besides, the EC50 in the data set with HRV-14 worked out at 136 nM; with HRV-1A, 537 nM; with HRV-2, 353 nM; with HRV-10, 446 nM; with HRV-16, 1490 nM; in the data set with HRV-25, 1510 nM. Further, the EC50 in the data set with HRV-39 came out at 593 nM; in the data set on HRV-3, 605 nM; with HRV-87, 97 nM; in the data set with HRV-9, 885 nM. In data set [2] (table line HRV-1A), this compound returned a CC50 at 2 days greater than 10000 nM. Besides, the cytotoxic concentration (CC50) in the data set on H1-HeLa cells (table line HRV-2), in the data set on H1-HeLa cells (table line HRV-3), in the data set with H1-HeLa cells (table line HRV-9), in the data set with H1-HeLa cells (table line HRV-10), in the data set with H1-HeLa cells (table line HRV-14) and with H1-HeLa cells (table line HRV-16) was greater than 10000 nM throughout. The 50% cytotoxic concentration (CC50) with H1-HeLa cells (table line HRV-25), in the data set on H1-HeLa cells (table line HRV-39) and with H1-HeLa cells (table line HRV-87) was greater than 10000 nM throughout.
Take `C#CC[C@H](CC(=O)c1ccc(-c2ccccc2C)[nH]1)C(=O)N[C@H](/C=C/C(=O)OCC)C[C@@H]1CCNC1=O` [Compound 39, 5-(2-Oxo-pyrrolidin-3S-yl)-4S-{2R-[2-oxo-2-(5-o-tolyl-1H-pyrrol-2-yl)-ethyl]-pent-4-ynoylamino}-pent-2(trans)-enoic acid ethyl ester]: the kinact/KI in data set [1] came to 20100 M⁻¹ s⁻¹. In addition, the EC50 in the data set on HRV-14 came out at 214 nM; in the data set with HRV-1A it was 338 nM; in the data set on HRV-2, 214 nM; in the data set with HRV-10, 428 nM; in the data set with HRV-16 it was 952 nM; in the data set on HRV-25 it was 1320 nM. Moreover, the EC50 in the data set with HRV-39 stood at 518 nM; in the data set on HRV-3, 595 nM; in the data set on HRV-87 it was 83 nM; in the data set on HRV-9, 665 nM. For the same compound, in data set [2] (table line HRV-1A), the CC50 at 2 days was greater than 10000 nM. For the same compound, the CC50 in the data set on H1-HeLa cells (table line HRV-2), with H1-HeLa cells (table line HRV-3), with H1-HeLa cells (table line HRV-9), with H1-HeLa cells (table line HRV-10), in the data set with H1-HeLa cells (table line HRV-14) and in the data set with H1-HeLa cells (table line HRV-16) was greater than 10000 nM each time. The 50% cytotoxic concentration (CC50) in the data set with H1-HeLa cells (table line HRV-25), with H1-HeLa cells (table line HRV-39) and in the data set on H1-HeLa cells (table line HRV-87) was greater than 10000 nM in each case.
For the compound `CCOC(=O)/C=C/[C@H](CCC(N)=O)NC(=O)[C@@H](CC(=O)c1ccc(-c2ccccc2C(F)(F)F)[nH]1)Cc1ccccc1` [Compound 40, 4S-{2R-Benzyl-4-oxo-[5-(2-trifluoromethyl-phenyl)-1H-pyrrol-2-yl]-butyrylamino}-6-carbamoyl-hex-2(trans)-enoic acid ethyl ester], the kinact/KI in [1] came to 3180 M⁻¹ s⁻¹. Besides, the EC50 in the data set with HRV-14 is 1660 nM. The compound also registered a half-maximal cytotoxic concentration (CC50) at 2 days in data set [2] (table line HRV-14) greater than 10000 nM.
With `CCOC(=O)/C=C/[C@H](CCC(N)=O)NC(=O)[C@H](Cc1ccccc1)N(C)C(=O)c1ccc(-c2ccccc2C(F)(F)F)[nH]1` [Compound 41, 6-Carbamoyl-4S-(2S {methyl-[5-(2-trifluoromethyl-phenyl)-1H-pyrrole-2-carbonyl]-amino}-3-3-phenyl-propionylamino)-hex-2(trans)-enoic acid ethyl ester], the kinact/KI in data set [1] was 10700 M⁻¹ s⁻¹. This compound yielded an EC50 in the data set with HRV-14 of 500 nM. Moreover, the cytotoxic concentration (CC50) at 2 days in [2] (table line HRV-14) is greater than 10000 nM.
